These compounds were tested on KM12-luc cells (assay: Cell proliferation and growth inhibition assay (CCK-8) in KM12-luc). Settings: KM12-Luc, 72 h, KM12-luc cells, treated with test compounds for 72 hrs, CCK-8 viability; read-out: NTRK IC50 in KM12-luc.
Type: cell-based
Outline: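 Cells were grown at 37 °C, 5% CO2 with 10% FBS: MV-4-11 in IMDM, H1975 in RPMI 1640, KM12-luc in DMEM. Viability was read by CCK-8 (1-4 hrs reagent incubation, absorbance at OD450). IC50 came from a non-linear sigmoidal dose-response fit.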

Row | Compound | IC50 [nM]
1 | CC(=O)Nc1cc(Nc2ncc(Cl)c(-c3cn(C)c4ccccc34)n2)ccc1N(C)C(=O)CCN(C)C [Compound 404, N-(2-acetamido-4-((5-chloro-4-(1-methyl-1H-indol-3-yl)pyrimidin-2-yl)amino)phenyl)-3-(dimethylamino)-N-methylpropanamide] | 26.5
2 | CC(=O)Nc1cc(Nc2ncc(C(F)(F)F)c(-c3cn(C)c4cc(F)ccc34)n2)ccc1N(C)CCN(C)C [Compound 333, N-(2-((2-(dimethylamino)ethyl)(methyl)amino)-5-((4-(6-fluoro-1-methyl-1H-indol-3-yl)-5-(trifluoromethyl)pyrimidin-2-yl)amino)phenyl)acetamide] | 28.5
3 | CC(=O)Nc1cc(Nc2nc(-c3c[nH]c4cccc(F)c34)c3cc[nH]c3n2)ccc1N(C)CCN(C)C [Compound 216, N-(2-((2-(dimethylamino)ethyl)(methyl)amino)-5-((4-(4-fluoro-1H-indol-3-yl)-7H-pyrrolo[2,3-d]pyrimidin-2-yl)amino)phenyl)acetamide] | 49.7
4 | CCN(CCN(C)C)c1c(F)cc(Nc2nc3c(c(-c4cn(C)c5ccccc45)n2)CCO3)cc1NC(C)=O [Compound 258d, N-(2-((2-(dimethylamino)ethyl)(ethyl)amino)-3-fluoro-5-((4-(1-methyl-1H-indol-3-yl)-5,6-dihydrofuro[2,3-d]pyrimidin-2-yl)amino)phenyl)acetamide] | > 1000
5 | CN(C)[C@H]1CCN(c2ccc(Nc3ncc(Cl)c(-c4cn(C)c5c(F)cccc45)n3)cc2N)C1 [Compound S-420, (S)—N^1-(5-chloro-4-(7-fluoro-1-methyl-1H-indol-3-yl)pyrimidin-2-yl)-4-(3-(dimethylamino)pyrrolidin-1-yl)benzene-1,3-diamine] | 261
6 | CNc1cc(Nc2ncc(OC)c(-c3cn(C)nc3C)n2)ccc1N(C)CCN(C)C [Compound 290, N^4-(4-(1,3-dimethyl-1H-pyrazol-4-yl)-5-methoxypyrimidin-2-yl)-N1-(2-(dimethylamino)ethyl)-N^1,N^2-dimethylbenzene-1,2,4-triamine] | > 10000
7 | CCN(CCN(C)C)c1ccc(Nc2ncc(C(F)(F)F)c(-c3c[nH]c4cccc(F)c34)n2)cc1NC(C)=O [Compound 318, N-(2-((2-(dimethylamino)ethyl)(ethyl)amino)-5-((4-(4-fluoro-1H-indol-3-yl)-5-(trifluoromethyl)pyrimidin-2-yl)amino)phenyl)acetamide] | 43.2
8 | CC(=O)Nc1cc(Nc2ncc(C(F)(F)F)c(-c3cn(C)c4ccc(C)cc34)n2)ccc1N(C)CCN(C)C [Compound 356, N-(5-((4-(1,5-dimethyl-1H-indol-3-yl)-5-(trifluoromethyl)pyrimidin-2-yl)amino)-2-((2-(dimethylamino)ethyl)(methyl)amino)phenyl)acetamide] | 327
9 | CCN(CCN(C)C)c1ccc(Nc2nc3c(c(-c4cn(C)c5ccccc45)n2)COCC3)cc1NC(C)=O [Compound 257c, N-(2-((2-(dimethylamino)ethyl)(ethyl)amino)-5-((4-(1-methyl-1H-indol-3-yl)-7,8-dihydro-5H-pyrano[4,3-d]pyrimidin-2-yl)amino)phenyl)acetamide] | > 10000
10 | CCC(=O)Nc1cccc(Nc2ncc(Cl)c(Nc3ccc(N4CCNCC4)cc3OC)n2)c1 [Compound 160, N-(3-((5-chloro-4-((2-methoxy-4-(piperazin-1-yl)phenyl)amino)pyrimidin-2-yl)amino)phenyl)propionamide] | 210
11 | CC(=O)Nc1cc(Nc2ncc(F)c(-c3cn(C)c4ccc(F)cc34)n2)ccc1N(C)CCN(C)C [Compound 265, N-(2-((2-(dimethylamino)ethyl)(methyl)amino)-5-((5-fluoro-4-(5-fluoro-1-methyl-1H-indol-3-yl)pyrimidin-2-yl)amino)phenyl)acetamide] | 414
12 | COc1cnc(Nc2ccc(OCCN(C)C)c(NC(C)=O)c2)nc1-c1c[nH]c2c(OC)cccc12 [Compound 287, N-(2-(2-(dimethylamino)ethoxy)-5-((5-methoxy-4-(7-methoxy-1H-indol-3-yl)pyrimidin-2-yl)amino)phenyl)acetamide] | 21.9
13 | CC(=O)Nc1cc(Nc2ncc(Cl)c(-c3c[nH]c4c(F)cccc34)n2)ccc1N1CC[C@H](N(C)C)C1 [Compound S-409, (S)—N-(5-((5-chloro-4-(7-fluoro-1H-indol-3-yl)pyrimidin-2-yl)amino)-2-(3-(dimethylamino)pyrrolidin-1-yl)phenyl)acetamide] | 24.6
14 | COc1c(N)nc(Nc2ccc(N(C)CCN(C)C)c(NC(C)=O)c2)nc1-c1cn(C)c2ccccc12 [Compound 295, N-(5-((4-amino-5-methoxy-6-(1-methyl-1H-indol-3-yl)pyrimidin-2-yl)amino)-2-((2-(dimethylamino)ethyl) (methyl)amino)phenyl) acetamide] | 159
15 | COc1cccc2c(-c3nc(Nc4ccc(N5CC[C@H](N(C)C)C5)c(N)c4)ncc3Cl)cn(C)c12 [Compound S-439, (S)—N^1-(5-chloro-4-(7-methoxy-1-methyl-1H-indol-3-yl)pyrimidin-2-yl)-4-(3-(dimethylamino)pyrrolidin-1-yl)benzene-1,3-diamine] | 150
16 | CCN(C(=O)CCN(C)C)c1ccc(Nc2ncc(Cl)c(-c3c[nH]c4ccccc34)n2)cc1NC(C)=O [Compound 451, N-(2-acetamido-4-((5-chloro-4-(1H-indol-3-yl)pyrimidin-2-yl)amino)phenyl)-3-(dimethylamino)-N-ethylpropanamide] | 14.2
17 | CN1CCN(c2ccc(C(=O)Nc3c[nH]c4cnc(Nc5cc(F)cc(F)c5)nc34)c(NC3CCOCC3)c2)CC1 [Compound 491, N-(2-((3,5-difluorophenyl)amino)-5H-pyrrolo[3,2-d]pyrimidin-7-yl)-4-(4-methylpiperazin-1-yl)-2-((tetrahydro-2H-pyran-4-yl)amino)benzamide] | > 3330
18 | CN1CCN(c2ccc(C(=O)Nc3c[nH]c4cnc(Oc5cc(F)cc(F)c5)nc34)c(NC3CCOCC3)c2)CC1 [Compound 503, N-(2-(3,5-difluorophenoxy)-5H-pyrrolo[3,2-d]pyrimidin-7-yl)-4-(4-methylpiperazin-1-yl)-2-((tetrahydro-2H-pyran-4-yl)amino)benzamide] | 3640
19 | CCN(CCN(C)C)c1ccc(Nc2ncc(C(F)(F)F)c(-c3c[nH]c4cc(F)ccc34)n2)cc1NC(C)=O [Compound 331a, N-(2-((2-(dimethylamino)ethyl)(ethyl)amino)-5-((4-(6-fluoro-1H-indol-3-yl)-5-(trifluoromethyl)pyrimidin-2-yl)amino)phenyl)acetamide] | 32.3
20 | CC(=O)Nc1cc(Nc2nc(-c3cn(C)c4ccc(C)cc34)c3cc[nH]c3n2)ccc1N(C)CCN(C)C [Compound 244, N-(5-((4-(1,5-dimethyl-1H-indol-3-yl)-7H-pyrrolo[2,3-d]pyrimidin-2-yl)amino)-2-((2-(dimethylamino)ethyl)(methyl)amino)phenyl)acetamide] | 348

Same assay, conditions: KM12-Luc, 72 h, read-out: NTRK IC50 in KM12-luc

Row | Compound | IC50 [nM]
21 | CC(=O)Nc1cc(Nc2nc(-c3cn(C)c4ccccc34)c3cc[nH]c3n2)ccc1N(C)CCN(C)C [Compound 205a, N-(2-((2-(dimethylamino)ethyl)(methyl)amino)-5-((4-(1-methyl-1H-indol-3-yl)-7H-pyrrolo[2,3-d]pyrimidin-2-yl)amino)phenyl)acetamide] | 37

Same assay, conditions: KM12-luc cells, treated with test compounds for 72 hrs, CCK-8 viability; read-out: NTRK IC50 in KM12-luc

Row | Compound | IC50 [nM]
22 | CC(=O)Nc1cc(Nc2ncc(Cl)c(-c3c[nH]c4ccccc34)n2)ccc1N(C)CCN(C)C [Compound 440] | 7

Source: US20250136576A1, “Heterocyclic Compounds and Uses Thereof” (ACEA Therapeutics, Inc., priority 2021, published 2025)
